What all share (assay type): physicochemical
Series [1] is described as follows: Solubility in JP1, JP2, JP2+TC, FaSSIF, FeSSIF (shaking 10 minutes at room temperature, HPLC). The conditions noted are these: 10 minutes shaking. Here is the method:
0.5 mg to 1 mg of a sample was weighed in 10 mL of a centrifuge tube, and respective solutions (see below) were added thereto such that the amount thereof became approximately 150 μg/mL. In order to disperse the sample uniformly, the solution was sonicated in a water bath for a short period of time, followed by shaking at room temperature for 10 minutes using a shaker SA31 (manufactured by Yamato Scientific Co., Ltd.). The solution after being shaken was filtered with a filter, and the concentration of the compound in the filtrate was determined by HPLC. The following solutions were used.
JP1 (first solution of Japanese Pharmacopoeia Disintegration Test): 2.0 g of sodium chloride was dissolved in 7.0 mL of hydrochloric acid and water and the amount thereof was set to 1000 mL (pH: approximately 1.2).
JP2 (second solution of Japanese Pharmacopoeia Disintegration Test): 118 mL of 0.2 mol/L sodium hydroxide test solution and water were added to 250 mL of 0.2 mol/L potassium dihydrogen phosphate test solution and the amount thereof was set to 1000 mL (pH: approximately 6.8).
JP2+bile acid (JP2+TC): sodium taurocholic acid was added to the second solution of Japanese Pharmacopoeia Disintegration Test such that the amount thereof became 15 mmol/L.
FaSSIF (simulated intestinal fluid (fasted state)): 3 mmol/L of sodium taurochloric acid, 0.75 mmol/L of lecithin, 3.9 g of potassium dihydrogen phosphate, and 7.7 g of potassium chloride were added to 1 L of water and the pH thereof was adjusted to approximately 6.5 using sodium hydroxide.
FeSSIF (simulated intestinal fluid (fed state)): 15 mmol/L of sodium taurochloric acid, 3.75 mmol/L of lecithin, 8.65 g of acetic acid, and 15.2 g of potassium chloride were added to 1 L of water and the pH thereof was adjusted to approximately 5.0 using sodium hydroxide.
Device: LC1100 (manufactured by Agilent Technologies)
Mobile phase: A: 0.01 mol/L aqueous ammonium acetate solution, B: 0.01 mol/L ammonium acetate methanol solution
Column: Developsil Combi-RP-5.5 μm (2.1 mm×50 mm)
Column temperature: 40° C.
Detection wavelength: 254 nm

Series [2] is described as follows: Hygroscopicity test (VTI SGA-100). The conditions noted are these: 25° C., 5% to 95% relative humidity. How it is done:
Measurement of the hygroscopicity of the crystals of the present invention was performed by using VTI SGA-100 under the conditions of temperature: 25° C., measurement range: 5% to 95% relative humidity, and measurement interval: 5% relative humidity.

Series [3] in a line: Physical solid stability (powder X-ray diffraction and DSC). The conditions noted are these: 70° C., plugged up, uncontrolled humidity, two weeks. How it is done:
With respect to solid state stability of the crystals of the present invention, physical/chemical stability under temperature and humidity conditions, and chemical stability in a light irradiation state were evaluated. The physical stability was evaluated by the powder X-ray diffraction and the differential scanning calorimetry analysis (DSC) (under the above-described measurement conditions). The chemical stability was evaluated by HPLC (related substance test and optical isomer separating test), and represented by the ratio (%) of generated impurities.
(Solid State Stability, Temperature)
In an Incubator IC-450A (manufactured by AS ONE Corporation) set as 70° C., a sample was plugged up and stored under the uncontrolled humidity environment for two weeks.
(Solid State Stability, Temperature/Humidity)

The mark [4] stands for this setting: FaSSIF (simulated intestinal fluid, pH 6.5), FaSSIF (fasted state), pH approximately 6.5, room temperature, read-out: Solubility FaSSIF.
Setting [5] is: FeSSIF (simulated intestinal fluid, pH 5), FeSSIF (fed state), pH approximately 5.0, room temperature, read-out: Solubility FeSSIF.
The mark [6] stands for this setting: JP2+TC (JP2 + bile acid), JP2 + 15 mmol/L sodium taurocholic acid, room temperature, read-out: Solubility JP2 + TC.
[7] abbreviates: pH 1.2, JP1, pH approximately 1.2, room temperature, read-out: Solubility JP1.
Setting [8] is: pH 6.8, JP2, pH approximately 6.8, room temperature, read-out: Solubility JP2.

SMILES strings stand for the structures. Read-outs that look alike come from different tables or passages of the source. Some results are limits rather than exact numbers.

The text below walks through data of patent publication US20140275105A1, “CRYSTAL OF ANDROGEN RECEPTOR AN[…]” (Astellas Pharma Inc., priority 2011, published 2014).

The term solubility denotes the concentration that dissolves in the medium under given conditions. As to `Br.C[C@@H]1CN(c2ccc(C#N)c(Cl)c2)[C@@H](C)CN1C(=O)Nc1cnc(C2CC2)nc1` [(2R,5S)-4-(3-chloro-4-cyanophenyl)-N-(2-cyclopropylpyrimidin-5-yl)-2,5-dimethylpiperazine-1-carboxamide hydrobromide], the solubility at 10 minutes in series [1] (setting [4]) was 41 µg/mL; in series [1] (setting [5]), 94.9 µg/mL; in series [1] (setting [6]) it was above 80.6 µg/mL; in series [1] (setting [7]), 12.3 µg/mL; in series [1] (setting [8]), 19.8 µg/mL. Also, the Hygroscopicity in series [2] is on record as 0.1% or less. The “Physical solid stability, temperature” value in series [3] was “Stable to the temperature”.

As for `C[C@@H]1CN(c2ccc(C#N)c(Cl)c2)[C@@H](C)CN1C(=O)Nc1cnc(C2CC2)nc1.Cl` [(2R,5S)-4-(3-chloro-4-cyanophenyl)-N-(2-cyclopropylpyrimidin-5-yl)-2,5-dimethylpiperazine-1-carboxamide hydrochloride], the solubility at 10 minutes in series [1] (setting [4]) was 39.4 µg/mL; in series [1] (setting [5]), above 100 µg/mL; in series [1] (setting [6]), 92.8 µg/mL; in series [1] (setting [7]), 9.7 µg/mL; in series [1] (setting [8]) it was 10.1 µg/mL. In series [2], this compound came in with a Hygroscopicity of around 1.4%. Moreover, the “Physical solid stability, temperature” value in series [3] was “Stable to the temperature”.

As for `CS(=O)(=O)O.C[C@@H]1CN(c2ccc(C#N)c(Cl)c2)[C@@H](C)CN1C(=O)Nc1cnc(C2CC2)nc1` [(2R,5S)-4-(3-chloro-4-cyanophenyl)-N-(2-cyclopropylpyrimidin-5-yl)-2,5-dimethylpiperazine-1-carboxamide methanesulfonate], the solubility at 10 minutes in series [1] (setting [4]) is 47.2 µg/mL; in series [1] (setting [5]), above 100 µg/mL; in series [1] (setting [6]), above 100 µg/mL; in series [1] (setting [7]), above 100 µg/mL; in series [1] (setting [8]), 20.6 µg/mL. Further, the Hygroscopicity in series [2] is recorded as around 5%.

In the case of `C[C@@H]1CN(c2ccc(C#N)c(Cl)c2)[C@@H](C)CN1C(=O)Nc1cnc(C2CC2)nc1.O` [(2R,5S)-4-(3-chloro-4-cyanophenyl)-N-(2-cyclopropylpyrimidin-5-yl)-2,5-dimethylpiperazine-1-carboxamide monohydrate], the solubility at 10 minutes is 4.4 µg/mL in series [1] (setting [4]); 17.7 µg/mL in series [1] (setting [5]); 8.8 µg/mL in series [1] (setting [6]); 21.8 µg/mL in series [1] (setting [7]); 1.6 µg/mL in series [1] (setting [8]). The Hygroscopicity in series [2] is 0.1% or less. Further, the “Physical solid stability, temperature” value in series [3] is “Stable to the temperature”.
